According to patent US20070010671A1, “Novel quinazoline derivatives and methods of treatment related to the use thereof” (priority 2003, published 2007):

Each compound was assayed against MCH receptor (Homo sapiens, UniProt Q99705) (assay: High throughput functional screening FLIPR/FDSS6000: inhibition of MCH-evoked intracellular Ca2+ changes). Conditions: class by percent of control at 10^−7 M or by IC50; read-out: class.
Assay type: cell-based
Outline: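 In a kinetic calcium-flux format, compounds were tested at various concentrations against 50 nM MCH. Fluo4-loaded cells expressing a constitutively active, non-endogenous receptor were imaged at 488/530 nm for 290 s after agonist addition.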

| SMILES | IC50 [nM] |
| --- | --- |
| CN(C)c1nc(N[C@H]2CC[C@@H](NC(=O)c3ccc(Oc4ccc(Br)cc4)nc3)CC2)nc2ccccc12 [Example 1061, 6-(4-bromophenoxy)-N-(cis-4-{[4-(dimethylamino)quinazolin-2-yl]amino}cyclohexyl)nicotinamide] | > 200 |
| CN(C)c1nc(N[C@H]2CC[C@@H](NC(=O)c3ccc(Oc4ccc(OC(F)(F)F)cc4)nc3)CC2)nc2ccccc12 [Example 1062, N-(cis-4-{[4-(dimethylamino)quinazolin-2-yl]amino}cyclohexyl)-6-[4-(trifluoromethoxy)phenoxy]nicotinamide] | > 200 |
| CN(C)c1nc(N[C@H]2CC[C@@H](NC(=O)c3ccc(Oc4cc(F)cc(F)c4)nc3)CC2)nc2ccccc12 [Example 1063, 6-(3,5-difluorophenoxy)-N-(cis-4-{[4-(dimethylamino)quinazolin-2-yl]amino}cyclohexyl)nicotinamide] | > 200 |
| COc1cc(Cl)ccc1Oc1ccc(C(=O)N[C@H]2CC[C@@H](Nc3nc(N(C)C)c4ccccc4n3)CC2)cn1 [Example 1068, 6-(4-chloro-2-methoxyphenoxy)-N-(cis-4-{[4-(dimethylamino)quinazolin-2-yl]amino}cyclohexyl)nicotinamide] | 50 to 200 |
| CN(C)c1nc(N[C@H]2CC[C@@H](NC(=O)c3ccc(Oc4ccc(F)c(Cl)c4)nc3)CC2)nc2ccccc12 [Example 1070, 6-(3-chloro-4-fluorophenoxy)-N-(cis-4-{[4-(dimethylamino)quinazolin-2-yl]amino}cyclohexyl)nicotinamide] | 50 to 200 |
| COc1cc(OC)cc(Oc2ccc(C(=O)N[C@H]3CC[C@@H](Nc4nc(N(C)C)c5ccccc5n4)CC3)cn2)c1 [Example 1071, 6-(3,5-dimethoxyphenoxy)-N-(cis-4-{[4-(dimethylamino)quinazolin-2-yl]amino}cyclohexyl)nicotinamide] | 50 to 200 |
| CN(C)c1nc(N[C@H]2CC[C@@H](NC(=O)c3ccc(Oc4cccc(Br)c4)nc3)CC2)nc2ccccc12 [Example 1072, 6-(3-bromophenoxy)-N-(cis-4-{[4-(dimethylamino)quinazolin-2-yl]amino}cyclohexyl)nicotinamide] | > 200 |
| CN(C)c1nc(N[C@H]2CC[C@@H](NC(=O)c3ccnc(Oc4cccc(Cl)c4)c3)CC2)nc2ccccc12 [Example 1073, 2-(3-chlorophenoxy)-N-(cis-4-{[4-(dimethylamino)quinazolin-2-yl]amino}cyclohexyl)isonicotinamide] | 50 to 200 |
| Cc1ccc(OCC(=O)N[C@H]2CC[C@@H](Nc3nc(N(C)C)c4ccccc4n3)CC2)cc1C [Example 1076, N-(cis-4-{[4-(dimethylamino)quinazolin-2-yl]amino}cyclohexyl)-2-(3,4-dimethylphenoxy)acetamide] | > 200 |
| CN(C)c1nc(N[C@H]2CC[C@@H](NC(=O)COc3cc(Cl)c(Cl)cc3Cl)CC2)nc2ccccc12 [Example 1077, N-(cis-4-{[4-(dimethylamino)quinazolin-2-yl]amino}cyclohexyl)-2-(2,4,5-trichlorophenoxy)acetamide] | 50 to 200 |
| COc1ccccc1OCC(=O)N[C@H]1CC[C@@H](Nc2nc(N(C)C)c3ccccc3n2)CC1 [Example 1082, N-(cis-4-{[4-(dimethylamino)quinazolin-2-yl]amino}cyclohexyl)-2-(2-methoxyphenoxy)acetamide] | 50 to 200 |
| CN(C)c1nc(N[C@H]2CC[C@@H](NC(=O)COc3ccc(Cl)cc3Cl)CC2)nc2ccccc12 [Example 1083, 2-(2,4-dichlorophenoxy)-N-(cis-4-{[4-(dimethylamino)quinazolin-2-yl]amino}cyclohexyl)acetamide] | 50 to 200 |
| CN(C)c1nc(N[C@H]2CC[C@@H](NC(=O)c3ccc(OCc4ccccc4)cc3)CC2)nc2ccccc12 [Example 1084, 4-(benzyloxy)-N-(cis-4-{[4-(dimethylamino)quinazolin-2-yl]amino}cyclohexyl)benzamide] | > 200 |
| CN(C)c1nc(N[C@H]2CC[C@@H](NC(=O)CNc3ccc(Cl)cc3)CC2)nc2ccccc12 [Example 1089, N2-(4-chlorophenyl)-N-(cis-4-{[4-(dimethylamino)quinazolin-2-yl]amino}cyclohexyl)glycinamide] | < 50 |
| COc1cccc(NCC(=O)N[C@H]2CC[C@@H](Nc3nc(N(C)C)c4ccccc4n3)CC2)c1 [Example 1090, N-(cis-4-{[4-(dimethylamino)quinazolin-2-yl]amino}cyclohexyl)-N2-(3-methoxyphenyl)glycinamide] | < 50 |
| CN(C)c1nc(N[C@H]2CC[C@@H](NC(=O)CNc3ccc(F)cc3)CC2)nc2ccccc12 [Example 1091, N-(cis-4-{[4-(dimethylamino)quinazolin-2-yl]amino}cyclohexyl)-N2-(4-fluorophenyl)glycinamide] | < 50 |
| CN(C)c1nc(N[C@H]2CC[C@@H](CNC(=O)[C@@H](O)c3cccc(Cl)c3)CC2)nc2ccccc12 [Example 1100, (2S)-2-(3-chlorophenyl)-N-[(cis-4-{[4-(dimethylamino)-quinazolin-2-yl]amino}cyclohexyl)methyl]-2-hydroxyacetamide] | 50 to 200 |
| CN(C)c1nc(N[C@H]2CC[C@@H](CNC(=O)[C@H](O)c3ccccc3Cl)CC2)nc2ccccc12 [Example 1101, (2R)-2-(2-chlorophenyl)-N-[(cis-4-{[4-(dimethylamino)-quinazolin-2-yl]amino}cyclohexyl)methyl]-2-hydroxyacetamide] | 50 to 200 |
| CN(C)c1nc(N[C@H]2CC[C@@H](CNC(=O)[C@H](O)c3ccccc3)CC2)nc2ccccc12 [Example 1102, (2R)-N-[(cis-4-{[4-(dimethylamino)quinazolin-2-yl]amino}cyclohexyl)methyl]-2-hydroxy-2-phenylacetamide] | > 200 |
| CN(C)c1nc(N[C@H]2CC[C@@H](CNC(=O)[C@@H](O)c3ccccc3)CC2)nc2ccccc12 [Example 1103, (2S)-N-[(cis-4-{[4-(dimethylamino)quinazolin-2-yl]amino}cyclohexyl)methyl]-2-hydroxy-2-phenylacetamide] | > 200 |

More lines, now with the values ahead:

| IC50 [nM] | SMILES |
| --- | --- |
| < 50 | CN(C)c1nc(N[C@H]2CC[C@@H](NC(=O)c3ccc(Oc4cccc(F)c4F)nc3)CC2)nc2ccccc12 [Example 1064, 6-(2,3-difluorophenoxy)-N-(cis-4-{[4-(dimethylamino)quinazolin-2-yl]amino}cyclohexyl)nicotinamide] |
| < 50 | CN(C)c1nc(N[C@H]2CC[C@@H](NC(=O)c3ccc(Oc4ccc(F)c(F)c4)nc3)CC2)nc2ccccc12 [Example 1065, 6-(3,4-difluorophenoxy)-N-(cis-4-{[4-(dimethylamino)quinazolin-2-yl]amino}cyclohexyl)nicotinamide] |
| < 50 | COc1cccc(Oc2ccc(C(=O)N[C@H]3CC[C@@H](Nc4nc(N(C)C)c5ccccc5n4)CC3)cn2)c1OC [Example 1066, 6-(2,3-dimethoxyphenoxy)-N-(cis-4-{[4-(dimethylamino)quinazolin-2-yl]amino}cyclohexyl)nicotinamide] |
| < 50 | CN(C)c1nc(N[C@H]2CC[C@@H](NC(=O)c3ccc(Oc4ccc(Cl)c(F)c4)nc3)CC2)nc2ccccc12 [Example 1069, 6-(4-chloro-3-fluorophenoxy)-N-(cis-4-{[4-(dimethylamino)quinazolin-2-yl]amino}cyclohexyl)nicotinamide] |
| < 50 | CN(C)c1nc(N[C@H]2CC[C@@H](NC(=O)c3ccnc(Oc4ccc(Cl)cc4)c3)CC2)nc2ccccc12 [Example 1074, 2-(4-chlorophenoxy)-N-(cis-4-{[4-(dimethylamino)quinazolin-2-yl]amino}cyclohexyl)isonicotinamide] |
| < 50 | CN(C)c1nc(N[C@H]2CC[C@@H](NC(=O)COc3ccc(Cl)c(Cl)c3)CC2)nc2ccccc12 [Example 1075, 2-(3,4-dichlorophenoxy)-N-(cis-4-{[4-(dimethylamino)quinazolin-2-yl]amino}cyclohexyl)acetamide] |
| < 50 | CN(C)c1nc(N[C@H]2CC[C@@H](NC(=O)COc3ccc(F)cc3)CC2)nc2ccccc12 [Example 1078, N-(cis-4-{[4-(dimethylamino)quinazolin-2-yl]amino}cyclohexyl)-2-(4-fluorophenoxy)acetamide] |
| < 50 | Cc1cccc(OCC(=O)N[C@H]2CC[C@@H](Nc3nc(N(C)C)c4ccccc4n3)CC2)c1 [Example 1079, N-(cis-4-{[4-(dimethylamino)quinazolin-2-yl]amino}cyclohexyl)-2-(3-methylphenoxy)acetamide] |
| < 50 | COc1ccc(OCC(=O)N[C@H]2CC[C@@H](Nc3nc(N(C)C)c4ccccc4n3)CC2)cc1 [Example 1080, N-(cis-4-{[4-(dimethylamino)quinazolin-2-yl]amino}cyclohexyl)-2-(4-methoxyphenoxy)acetamide] |
| < 50 | COc1cccc(OCC(=O)N[C@H]2CC[C@@H](Nc3nc(N(C)C)c4ccccc4n3)CC2)c1 [Example 1081, N-(cis-4-{[4-(dimethylamino)quinazolin-2-yl]amino}cyclohexyl)-2-(3-methoxyphenoxy)acetamide] |
| < 50 | CN(C)c1nc(N[C@H]2CC[C@@H](NC(=O)CNc3ccccc3)CC2)nc2ccccc12 [Example 1085, N-(cis-4-{[4-(dimethylamino)quinazolin-2-yl]amino}cyclohexyl)-N2-phenylglycinamide] |
| < 50 | Cc1cccc(NCC(=O)N[C@H]2CC[C@@H](Nc3nc(N(C)C)c4ccccc4n3)CC2)c1 [Example 1086, N-(cis-4-{[4-(dimethylamino)quinazolin-2-yl]amino}cyclohexyl)-N2-(3-methylphenyl)glycinamide] |
| < 50 | CN(C)c1nc(N[C@H]2CC[C@@H](NC(=O)CNc3cccc(F)c3)CC2)nc2ccccc12 [Example 1087, N-(cis-4-{[4-(dimethylamino)quinazolin-2-yl]amino}cyclohexyl)-N2-(3-fluorophenyl)glycinamide] |
| < 50 | CN(C)c1nc(N[C@H]2CC[C@@H](NC(=O)CN(C)c3ccccc3)CC2)nc2ccccc12 [Example 1088, N-(cis-4-{[4-(dimethylamino)quinazolin-2-yl]amino}cyclohexyl)-N2-methyl-N2-phenylglycinamide] |
